Test results taken from publication PMC11266321 (EJNMMI Radiopharmacy and Chemistry, 2024).

Columns and labels:
[1] = system: Glycine (strychnine site); type: binding; settings: 10 µM; radioligand [^3H]Strychine; mean of duplicate
[2] = target: T1, Adenosine A1 (Homo sapiens, UniProt P30542); test: Radioligand binding inhibition, Adenosine A1; settings: 10 µM; radioligand [^3H]DPCPX; mean of duplicate
T1 construct: Sekisui Medical (contract laboratory)
Protocol: (§1) Interaction of MMP with 28 binding sites was examined, including major classes of neurotransmitter receptor, uptake system, and ion channels (Sekisui Medical, Naka, Japan). MMP was tested in all assays at 10 µM. […] Each determination was made in duplicate.
(§2) Test substance concentration : 10 µM, positive substance concentration : 10 µM
(§3) Data are expressed as the mean values of duplicate samples.
(§4) The % inhibition was calculated from “100 – binding ratio”.
(§5) Binding ratio: [(B - N) / (B0 - N)] × 100 (%)
(§6) B: Bound radioactivity in the presence of test substance and positive substance (individual value)
(§7) B0: Total bound radioactivity in the absence of test substance and positive substance (mean value)
(§8) N: Non-specific bound radioactivity (mean value)

[3] = target: T2, Serotonin 5HT3 (human) (Homo sapiens, UniProt P46098); test: Radioligand binding inhibition, Serotonin 5HT3; settings: 10 µM; radioligand [^3H]GR65630; mean of duplicate
T2 construct: Sekisui Medical (contract laboratory that ran the panel)
T2 sequence (P46098 24-478): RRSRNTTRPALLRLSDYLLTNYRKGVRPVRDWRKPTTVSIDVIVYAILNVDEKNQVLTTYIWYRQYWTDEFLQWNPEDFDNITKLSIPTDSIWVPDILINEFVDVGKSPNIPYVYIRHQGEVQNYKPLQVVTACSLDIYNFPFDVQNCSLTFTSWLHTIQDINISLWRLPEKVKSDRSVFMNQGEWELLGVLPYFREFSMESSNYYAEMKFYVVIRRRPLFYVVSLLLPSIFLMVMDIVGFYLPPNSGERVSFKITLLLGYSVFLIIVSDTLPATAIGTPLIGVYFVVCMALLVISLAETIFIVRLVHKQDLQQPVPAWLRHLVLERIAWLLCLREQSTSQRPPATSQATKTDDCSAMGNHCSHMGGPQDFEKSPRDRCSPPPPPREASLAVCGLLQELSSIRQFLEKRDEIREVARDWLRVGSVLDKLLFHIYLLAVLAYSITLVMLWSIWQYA
Protocol: (§9) Interaction of MMP with 28 binding sites was examined, including major classes of neurotransmitter receptor, uptake system, and ion channels (Sekisui Medical, Naka, Japan). MMP was tested in all assays at 10 µM. […] 10.2.3 (GraphPad Software, San Diego, CA). Each determination was made in duplicate.
as §2, §3, §4, §5, §6, §7, §8

[4] = target: T3, Histamine H1 (central) (Homo sapiens, UniProt P35367); type: binding; settings: 10 µM; radioligand [^3H]Pyrilamine; mean of duplicate
T3 construct: Sekisui Medical (contract laboratory)
T3 sequence (P35367 whole entry): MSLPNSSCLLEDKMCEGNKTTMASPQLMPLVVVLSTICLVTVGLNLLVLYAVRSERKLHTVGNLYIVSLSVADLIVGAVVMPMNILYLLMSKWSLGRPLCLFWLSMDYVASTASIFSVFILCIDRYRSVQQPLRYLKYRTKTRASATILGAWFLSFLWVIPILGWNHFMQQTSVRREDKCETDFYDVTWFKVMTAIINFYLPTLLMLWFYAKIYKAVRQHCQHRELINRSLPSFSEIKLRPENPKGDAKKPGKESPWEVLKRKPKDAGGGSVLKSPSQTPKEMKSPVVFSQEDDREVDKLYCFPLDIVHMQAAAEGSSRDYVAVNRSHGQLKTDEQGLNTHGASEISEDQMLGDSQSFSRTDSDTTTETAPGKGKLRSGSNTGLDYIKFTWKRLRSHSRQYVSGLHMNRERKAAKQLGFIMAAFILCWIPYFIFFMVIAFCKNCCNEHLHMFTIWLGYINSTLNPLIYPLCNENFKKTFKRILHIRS

[5] = target: T4, Glutamate (NMDA glycine site) (Homo sapiens, UniProt Q05586); test: Radioligand binding inhibition, Glutamate NMDA glycine site; settings: 10 µM; radioligand [^3H]MDL105,519; mean of duplicate
T4 construct: Sekisui Medical (contract laboratory)
Protocol: as §9, §2, §3, §4, §5, §6, §7, §8

[6] = system: Glutamate (AMPA); test: Radioligand binding inhibition, Glutamate AMPA; settings: 10 µM; radioligand [^3H]AMPA; mean of duplicate
Protocol: as §9, §2, §3, §4, §5, §6, §7, §8

[7] = system: Nicotinic (neuronal); type: binding; settings: 10 µM; radioligand [^3H]Cytisine; mean of duplicate
[8] = system: Salmonella typhimurium (TA98, TA100, TA1535, and TA1537); test: Ames test (reverse bacterial mutation test), Salmonella; type: cell-based; settings: with and without S9 mixture, 78.1–5000 µg/plate
Text: (§10) The MMP was custom synthesized by the Nard Institute (Kobe, Japan) using methods described previously (Toyohara et al. [2020a]). All other chemical reagents were obtained from commercial sources. Male ddY mice were obtained from Japan SLC (Hamamatsu, Japan). Sprague–Dawley rats [Crl: CD(SD)] were obtained from […] (Yokohama, Japan). Animal studies were approved by the Animal Care and Use Committee of the Tokyo Metropolitan Institute for Geriatrics and Gerontology (Approval Nos. 22,015 and 23,007) and Nihon Bioresearch (Hashima, Japan; Approval Nos. 430,085 and 430,086). Acute toxicity studies were performed under the “Revisions of the Guidelines for Single and Repeated Dose Toxicity Studies” (PMDA, 1993). Ames test was performed under the “Guidance on Genotoxicity Testing and Data Interpretation for Pharmaceuticals Intended for Human Use” (PMDA, 2012).
(§11) Mutagenicity tests were performed at the Hashima Research Center, Nihon Bioresearch, under non-GLP control. MMP was tested for mutagenicity by the Ames test with four histidine-requiring strains of Salmonella typhimurium (TA98, TA100, TA1535, and TA1537) and one strain of Escherichia coli (WP2uvrA), with and without the S9 mixture, at a dose range of 78.1–5000 µg/plate according to the standard method.

[9] = system: GABA A (BZ central); test: Radioligand binding inhibition, GABA A BZ central; settings: 10 µM; radioligand [^3H]Flunitrazepam; mean of duplicate
Protocol: as §9, §2, §3, §4, §5, §6, §7, §8

[10] = target: T5, Adenosine A2 (Homo sapiens, UniProt P29274); test: Radioligand binding inhibition, Adenosine A2; settings: 10 µM; radioligand [^3H]CGS21680; mean of duplicate
T5 construct: Sekisui Medical (contract laboratory)
T5 sequence (P29274 whole entry): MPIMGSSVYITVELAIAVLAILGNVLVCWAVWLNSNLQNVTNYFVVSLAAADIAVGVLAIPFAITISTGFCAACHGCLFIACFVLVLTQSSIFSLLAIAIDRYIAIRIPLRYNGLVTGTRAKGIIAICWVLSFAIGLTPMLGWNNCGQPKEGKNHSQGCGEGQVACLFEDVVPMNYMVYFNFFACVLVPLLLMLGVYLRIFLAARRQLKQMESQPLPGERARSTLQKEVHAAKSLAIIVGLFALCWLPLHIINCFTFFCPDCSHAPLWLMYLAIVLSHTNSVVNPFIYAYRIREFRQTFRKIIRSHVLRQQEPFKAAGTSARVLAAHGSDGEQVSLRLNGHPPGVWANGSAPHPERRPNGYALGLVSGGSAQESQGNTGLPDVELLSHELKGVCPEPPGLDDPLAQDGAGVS
Protocol: as §1, §2, §3, §4, §5, §6, §7, §8

[11] = system: Escherichia coli (WP2uvrA); test: Ames test (reverse bacterial mutation test), E. coli; type: cell-based; settings: with and without S9 mixture, 78.1–5000 µg/plate
Text: as §10, §11

[12] = target: T6, Dopamine D2 (Homo sapiens, UniProt P14416); test: Radioligand binding inhibition, Dopamine D2; settings: 10 µM; radioligand [^3H]Spiperone; mean of duplicate
T6 construct: Sekisui Medical (contract laboratory)
T6 sequence (P14416 whole entry): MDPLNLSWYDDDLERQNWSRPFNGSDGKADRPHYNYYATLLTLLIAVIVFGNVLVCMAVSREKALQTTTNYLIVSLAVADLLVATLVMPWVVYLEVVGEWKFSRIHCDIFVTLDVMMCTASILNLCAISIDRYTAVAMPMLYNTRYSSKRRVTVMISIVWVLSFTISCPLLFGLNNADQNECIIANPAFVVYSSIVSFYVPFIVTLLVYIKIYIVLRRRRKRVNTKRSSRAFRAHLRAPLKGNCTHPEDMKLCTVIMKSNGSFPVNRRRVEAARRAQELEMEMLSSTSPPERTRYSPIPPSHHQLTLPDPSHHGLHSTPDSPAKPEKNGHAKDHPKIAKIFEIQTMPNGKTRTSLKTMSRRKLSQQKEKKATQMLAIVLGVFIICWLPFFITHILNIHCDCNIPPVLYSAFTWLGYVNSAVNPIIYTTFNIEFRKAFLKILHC
Protocol: as §9, §2, §3, §4, §5, §6, §7, §8

[13] = system: GABA A (agonist site); test: Radioligand binding inhibition, GABA A agonist site; settings: 10 µM; radioligand [^3H]Muscimol; mean of duplicate
Protocol: as §9, §2, §3, §4, §5, §6, §7, §8

[14] = target: T7, GABA B (Homo sapiens, UniProt Q9UBS5); test: Radioligand binding inhibition, GABA B; settings: 10 µM; radioligand [^3H]GABA; mean of duplicate
T7 construct: Sekisui Medical (contract laboratory)
T7 sequence (Q9UBS5 15-961 limits assumed): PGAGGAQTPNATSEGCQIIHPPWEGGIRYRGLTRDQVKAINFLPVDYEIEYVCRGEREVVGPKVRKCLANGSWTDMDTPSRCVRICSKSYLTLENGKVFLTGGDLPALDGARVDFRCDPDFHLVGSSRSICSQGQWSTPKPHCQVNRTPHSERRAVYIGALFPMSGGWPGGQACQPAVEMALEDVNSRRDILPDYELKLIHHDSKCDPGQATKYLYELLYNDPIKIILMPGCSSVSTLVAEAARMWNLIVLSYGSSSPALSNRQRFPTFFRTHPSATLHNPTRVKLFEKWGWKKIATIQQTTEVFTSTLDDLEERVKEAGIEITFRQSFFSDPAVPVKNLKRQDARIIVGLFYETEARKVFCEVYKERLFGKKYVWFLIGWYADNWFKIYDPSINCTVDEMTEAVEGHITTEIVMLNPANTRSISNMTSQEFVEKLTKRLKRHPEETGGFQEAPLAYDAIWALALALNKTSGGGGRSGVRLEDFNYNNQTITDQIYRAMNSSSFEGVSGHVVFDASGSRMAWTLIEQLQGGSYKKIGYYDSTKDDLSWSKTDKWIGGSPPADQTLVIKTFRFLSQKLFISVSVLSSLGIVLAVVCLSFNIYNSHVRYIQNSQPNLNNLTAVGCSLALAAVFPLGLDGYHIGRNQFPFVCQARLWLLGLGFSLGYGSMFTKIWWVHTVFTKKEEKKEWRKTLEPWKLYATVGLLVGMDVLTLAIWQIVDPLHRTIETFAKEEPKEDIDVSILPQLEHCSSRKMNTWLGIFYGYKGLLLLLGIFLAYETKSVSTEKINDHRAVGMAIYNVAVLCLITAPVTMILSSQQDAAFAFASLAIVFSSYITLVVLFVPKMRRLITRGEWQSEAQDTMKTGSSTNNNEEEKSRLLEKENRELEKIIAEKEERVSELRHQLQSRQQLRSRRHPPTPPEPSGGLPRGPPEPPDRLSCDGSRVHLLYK
T7 sequence (O75899 42-941 partner): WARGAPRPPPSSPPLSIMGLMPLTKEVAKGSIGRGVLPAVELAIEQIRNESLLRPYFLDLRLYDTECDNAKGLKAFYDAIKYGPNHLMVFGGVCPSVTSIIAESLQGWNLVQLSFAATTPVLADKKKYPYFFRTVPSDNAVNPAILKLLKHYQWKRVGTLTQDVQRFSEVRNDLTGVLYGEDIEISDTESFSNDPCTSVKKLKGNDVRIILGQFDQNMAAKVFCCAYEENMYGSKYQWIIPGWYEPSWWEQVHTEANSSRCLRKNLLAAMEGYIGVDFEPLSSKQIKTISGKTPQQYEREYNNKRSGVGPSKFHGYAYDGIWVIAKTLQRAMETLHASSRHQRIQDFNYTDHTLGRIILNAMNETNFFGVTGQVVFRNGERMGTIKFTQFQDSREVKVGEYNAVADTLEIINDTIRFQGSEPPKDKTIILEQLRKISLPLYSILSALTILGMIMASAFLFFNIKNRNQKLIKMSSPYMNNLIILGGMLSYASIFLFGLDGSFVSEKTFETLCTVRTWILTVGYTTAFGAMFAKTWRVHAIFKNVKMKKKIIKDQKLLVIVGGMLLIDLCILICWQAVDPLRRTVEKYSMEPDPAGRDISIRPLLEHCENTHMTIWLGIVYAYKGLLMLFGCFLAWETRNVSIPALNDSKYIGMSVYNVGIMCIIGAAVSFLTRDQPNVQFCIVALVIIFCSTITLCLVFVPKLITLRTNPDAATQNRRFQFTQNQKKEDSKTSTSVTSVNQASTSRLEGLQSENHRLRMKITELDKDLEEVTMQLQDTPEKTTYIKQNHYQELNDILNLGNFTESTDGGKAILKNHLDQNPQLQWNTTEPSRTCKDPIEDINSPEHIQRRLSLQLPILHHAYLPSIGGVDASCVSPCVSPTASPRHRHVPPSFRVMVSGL
Protocol: as §1, §2, §3, §4, §5, §6, §7, §8

[15] = system: α2-Adrenergic (non-selective); test: Radioligand binding inhibition, α2-Adrenergic; settings: 10 µM; radioligand [^3H]Rauwolscine; mean of duplicate
Protocol: as §9, §2, §3, §4, §5, §6, §7, §8

T1 sequence (P30542 whole entry): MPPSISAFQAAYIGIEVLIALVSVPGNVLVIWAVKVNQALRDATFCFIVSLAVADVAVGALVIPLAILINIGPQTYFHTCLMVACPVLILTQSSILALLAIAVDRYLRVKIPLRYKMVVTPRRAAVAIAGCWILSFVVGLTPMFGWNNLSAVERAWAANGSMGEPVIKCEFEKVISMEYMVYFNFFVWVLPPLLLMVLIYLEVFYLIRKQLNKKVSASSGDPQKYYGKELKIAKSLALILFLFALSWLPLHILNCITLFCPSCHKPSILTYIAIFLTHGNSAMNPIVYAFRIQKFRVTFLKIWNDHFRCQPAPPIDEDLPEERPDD

Cc1ccc(CC(C)NC(C)C)cc1 (stereo not drawn) [MMP, N-isopropyl-p-methylamphetamine]
Inhibition ratio (%) [1]: 4.11% | Inhibition ratio (%) [2]: 3.26% | Inhibition ratio (%) [3]: 0.91% | Inhibition ratio (%) [4]: 11.97% | Inhibition ratio (%) [5]: 0.22% | Inhibition ratio (%) [6]: 5.98% | Inhibition ratio (%) [7]: 0.00% | mutagenic activity [8]: no mutagenic activity | Inhibition ratio (%) [9]: 2.17% | Inhibition ratio (%) [10]: 1.64% | mutagenic activity [11]: no mutagenic activity | Inhibition ratio (%) [12]: 6.04% | Inhibition ratio (%) [13]: 3.62% | Inhibition ratio (%) [14]: 1.59% | Inhibition ratio (%) [15]: 42.47%
